Patent publication EP4201483A1, “LPL1 DERIVED IMMUNE ENHANCING PEPTIDES” (Eberhard-Karls-Universität Tübingen, priority 2021, dated 2023)
Where no end group is shown, it is not given here.

Tests used:
[1] = tested on: peripheral blood mononuclear cells (PBMCs); test: Cytokine production by stimulated peripheral blood mononuclear cells (LegendPlex-Kits); format: cell-based; conditions: PBMCs from different donors; MDP 20 µg/ml, others 6 and 30 µg/ml
Experimental: (§1) The figures show: • Figure 1: Extent of sequence homology of the nine Lpl proteins encoded by the lpl operon in S. aureus USA300. […] LSP, leader signal peptide. Total length without LSP is 267 aa. We have chosen Lpli as a prototype of Lpl proteins for further studies. • Figure 2: L13 and L15 inhibit S. aureus internalization by HaCaT cells and N/TERT1 cells. N/TERT-1 are immortalized human keratinocytes. L15 was used at 20 µM), L13 at 30 µM and geldanamycin at 5 µM. SNC1 is representative for the many peptides that had no effect • Figure 3: Alignment of Lpl protein homologs. (A) Multiple sequence alignment of Lpls generated by using SnapGene software. Amino acids that match the Lpli sequence are highlighted in yellow. […] A therapeutic model (treatment at intervals post-infection) is already envisaged in the course of this project. • Figure 5: Quantification of the secreted cytokine IL-23 after stimulation of peripheral blood mononuclear cells of different donors with various cell wall components of Staphylococcus aureus. […] The measured IL-23 concentrations are depicted in pg/ml ± standard error of mean (SEM). • Figure 6: Prediction of Lpli structure and localization of L15 (top row, binding area indicated by white arrows) and L13 (bottom row, binding area indicated by white arrows) in Lpli. […]

Hsp90 = conditions: upon Hsp90 inhibition (Taiyab & Rao Ch, 2011); cited from earlier work
in vitro = format: cell-based; conditions: human; 24h and 48h of exposure; MTT and resazurin; MM6, HEK293, HaCaT, HeLa, HT-29; read-out: cytotoxicity (viability), concentration
Experimental: (§2) Cytotoxicity assays were conducted on 5 different mammalian cell lines after 24h and 48h of exposure to the various compounds, using the colorimetric tetrazolium dye MTT and the fluorometric resazurin (Alamar Blue): MM6 (human cell line with characteristics of mature monocytes), HEK293 (human embryonic kidney cells), HaCaT (human keratinocyte cell line), HeLa (human cervical cancer cell line) and HT-29 (human colon cancer cell line).

[2] = tested on: MM6, HEK293, HaCaT, HeLa and HT-29; test: Cytotoxicity assays (MTT and resazurin/Alamar Blue) on 5 mammalian cell lines; format: cell-based, human; conditions: 24h and 48h of exposure
Experimental: as §2

Solubility remark = format: physicochemical; conditions: compared with L15; reason why only L15 was used in mice
S. aureus = test: Septic arthritis mouse model (mouse sepsis model); format: in vivo; conditions: mice treated with L15
Experimental: as §1

CC(=O)N[C@H]1C(O)O[C@H](CO)[C@@H](O)[C@@H]1O[C@H](C)C(=O)N[C@@H](C)C(=O)N[C@H](CCC(=O)O)C(N)=O (mixture of isomers) [Muramyl Dipeptide (MDP), Muramyl Dipeptide]
levels of TNF, IL-1β, IL-6 or IL-10 induced [1]: high levels

C=CCNC1=C2C[C@@H](C)C[C@H](OC)[C@H](O)[C@@H](C)/C=C(\C)[C@H](OC(N)=O)[C@@H](OC)/C=C\C=C(/C)C(=O)NC(=CC1=O)C2=O [Peptide 17AAG, 17AAG]
F-actin formation (Hsp90): decreased

COC1=C2C[C@@H](C)C[C@H](OC)[C@H](O)[C@@H](C)/C=C(\C)[C@H](OC(N)=O)[C@@H](OC)/C=C\C=C(/C)C(=O)NC(=CC1=O)C2=O [geldanamycin]
MCC (in vitro): ≤ 10 µM

GHYFVTTFY [Peptide L13, GHYFVTTFY]
cytotoxicity (viability), concentration [2]: > 100 µM
solubility (Solubility remark): less soluble

TAKGHYFVTTFYRNG [Peptide L15, TAKGHYFVTTFYRNG]
cytotoxicity (viability), concentration [2]: > 100 µM
behaviour of treated mice (side observation) (S. aureus): hyperactive
